Test results as given in patent US20250025488A1, “NUCLEIC ACIDS FOR INHIBITING EXPRESSION OF TMPRSS6 AND IRON CHELATORS” (SILENCE THERAPEUTICS GMBH, priority 2018, published 2025).
Oligonucleotides are written 5' to 3', each unit as a sugar letter and its base; * is a phosphorothioate linkage, no mark a phosphodiester; rarer units and linkages stand in square brackets, end groups in braces. Plain capitals give the bases only. m = 2'-O-methyl; f = 2'-fluoro

Columns and labels:
TMPRSS6 mRNA [1] = assay: Dose-response of siRNAs against TMPRSS6 in Hep3B cells; type: cell-based, human; conditions: siRNA 100 nM-0.03 nM + 1 μg/ml AtuFECT, two days after transfection, TMPRSS6 mRNA normalized to ApoB, from dose-response curves FIG. 35; for Max inhibition: relative to 100 nM Luciferase-control siRNA
Procedure: 8000 cells per well were plated in 96-well plates. The following day cells were transfected with siRNA in indicated concentrations (100 nM-0.03 nM) and 1 μg/ml AtuFECT. Two days after transfection cells were lysed and TMPRSS6 mRNA levels were determined by q-RT-PCR. TMPRSS6 mRNA levels were normalized to expression levels of the house keeping gene ApoB. Average inhibition and standard deviation of triplicate values relative to cells treated with 100 nM of a non-targeting Luciferase-control siRNA are shown in FIG. 35.

TMPRSS6 mRNA [2] = assay: Reduction of TMPRSS6 mRNA expression by different siRNAs in Hep3B cells (20 nM, 96-well); type: cell-based, human; conditions: 20 nM siRNA + 1 μg/ml AtuFECT, two days after transfection, TMPRSS6 mRNA normalized to ApoB, relative to untreated cells
Procedure: 8000 cells per well were plated in 96-well plates. The following day cells were transfected with 20 nM siRNA and 1 μg/ml AtuFECT. Two days after transfection cells were lysed and TMPRSS6 mRNA levels were determined by q-RT-PCR. TMPRSS6 mRNA levels were normalized to expression levels of the house keeping gene ApoB. An siRNAs against Luciferase was used as non targeting control.

TMPRSS6 mRNA [3] = assay: Dose response of TMPRSS6 nucleic acids for inhibition of TMPRSS6 expression in human Hep3B cells; type: cell-based; conditions: 30-0.003 nM nucleic acid (Luciferase 30 and 10 nM) + 1 μg/ml AtuFECT, two days, normalized to PTEN
Procedure: Cells were plated at a cell density of 150,000 cells per 6 well dish. The following day cells were transfected with 1 μg/ml AtuFECT (50:50 formulation of cationic lipid Atufect01 and fusogenic lipid DPhyPE) and different amounts of TMPRSS6 nucleic acids (30; 10; 3; 1; 0.3; 0.1, 0.003 nM, respectively) as depicted by the X-axis of the graph in FIG. 2. For non targeting control samples, cells were transfected with 30 and 10 nM nucleic acid for Luciferase. Two days after the transfection cells were lysed and mRNA levels were determined by q-RT-PCR. TMPRSS6 mRNA levels were normalized to the expression levels of the house keeping gene PTEN. […] Sequences of RNAi molecules are depicted in Table 1.

[4] = molecular target: T1, Asialoglycoprotein receptor (ASGP-R) (Homo sapiens, UniProt P07306+P07307); conditions: higher affinity; cited from earlier work
T1 sequence (P07306 1-291): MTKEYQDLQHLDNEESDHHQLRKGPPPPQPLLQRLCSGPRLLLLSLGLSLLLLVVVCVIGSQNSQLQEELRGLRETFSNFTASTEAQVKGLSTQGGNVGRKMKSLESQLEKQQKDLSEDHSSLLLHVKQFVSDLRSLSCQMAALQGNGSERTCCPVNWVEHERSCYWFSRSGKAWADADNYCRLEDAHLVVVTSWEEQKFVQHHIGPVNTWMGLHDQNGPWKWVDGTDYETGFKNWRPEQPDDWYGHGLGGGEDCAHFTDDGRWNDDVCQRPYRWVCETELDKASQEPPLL
T1 sequence (P07307 1-311): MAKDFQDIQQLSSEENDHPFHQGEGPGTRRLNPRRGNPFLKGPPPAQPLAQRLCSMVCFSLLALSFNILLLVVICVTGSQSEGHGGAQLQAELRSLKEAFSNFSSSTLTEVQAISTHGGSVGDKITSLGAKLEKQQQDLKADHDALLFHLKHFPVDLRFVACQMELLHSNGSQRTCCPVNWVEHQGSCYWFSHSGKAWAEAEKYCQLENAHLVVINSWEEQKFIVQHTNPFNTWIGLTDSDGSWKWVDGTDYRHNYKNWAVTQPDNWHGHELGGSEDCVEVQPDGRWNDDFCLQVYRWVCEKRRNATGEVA

TMPRSS-hc-19: siRNA against TMPRSS6, SEQ ID NO 201/202 (chain 1 mGfAmAfUmAfGmAfCmGfGmAfGmCfUmGfGmAfGmU; chain 2 fAmCfUmCfCmAfGmCfUmCfCmGfUmCfUmAfUmUfC)
IC50 (TMPRSS6 mRNA [1]): 6.1 nM | Max inhibition (TMPRSS6 mRNA [1]): 100% | kd at 20 nM as shown in FIG. 34 (TMPRSS6 mRNA [2]): 89%

TMPRSS-SR-5: siRNA against TMPRSS6, strands hcTMP-SR5-A/B, SEQ ID NO 141/142 (chain 1 mGfGmUfGmCfUmGfAmGfGmAfCmGfCmCfCmUfGmG; chain 2 fCmCfAmGfGmGfCmGfUmCfCmUfCmAfGmCfAmCfC)
IC50 (TMPRSS6 mRNA [1]): 8.4 nM | Max inhibition (TMPRSS6 mRNA [1]): 100% | kd at 20 nM as shown in FIG. 34 (TMPRSS6 mRNA [2]): 85%

TMPRSS-hc-18: siRNA against TMPRSS6, SEQ ID NO 199/200 (chain 1 UUUUCUCUUGGAGUCCUCA; chain 2 UGAGGACUCCAAGAGAAAA; chain 1: sugars from the 5' end mfmfmfmfmfmfmfmfmfm, backbone not given here; chain 2: sugars from the 5' end fmfmfmfmfmfmfmfmfmf, backbone not given here)
IC50 (TMPRSS6 mRNA [1]): 4.6 nM | Max inhibition (TMPRSS6 mRNA [1]): 95% | kd at 20 nM as shown in FIG. 34 (TMPRSS6 mRNA [2]): 90%

TMPRSS-hc-16: siRNA against TMPRSS6, SEQ ID NO 195/196 (chain 1 mUfAmUfUmCfCmAfAmAfGmGfGmCfAmGfCmUfGmA; chain 2 fUmCfAmGfCmUfGmCfCmCfUmUfUmGfGmAfAmUfA)
IC50 (TMPRSS6 mRNA [1]): 7.7 nM | Max inhibition (TMPRSS6 mRNA [1]): 100% | kd at 20 nM as shown in FIG. 34 (TMPRSS6 mRNA [2]): 91%

TMPRSS-hcm-25: siRNA against TMPRSS6, SEQ ID NO 211/212 (chain 1 AGUUUCUCUCAUCCAGGCC; chain 2 GGCCUGGAUGAGAGAAACU; chain 1: sugars from the 5' end mfmfmfmfmfmfmfmfmfm, backbone not given here; chain 2: sugars from the 5' end fmfmfmfmfmfmfmfmfmf, backbone not given here)
IC50 (TMPRSS6 mRNA [1]): 4.6 nM | Max inhibition (TMPRSS6 mRNA [1]): 87% | kd at 20 nM as shown in FIG. 34 (TMPRSS6 mRNA [2]): 85%

TMPRSS-hc-17: siRNA against TMPRSS6, SEQ ID NO 197/198 (chain 1 AUCUUCUGGGCUUUGGCGG; chain 2 CCGCCAAAGCCCAGAAGAU; chain 1: sugars from the 5' end mfmfmfmfmfmfmfmfmfm, backbone not given here; chain 2: sugars from the 5' end fmfmfmfmfmfmfmfmfmf, backbone not given here)
IC50 (TMPRSS6 mRNA [1]): 2.4 nM | Max inhibition (TMPRSS6 mRNA [1]): 82% | kd at 20 nM as shown in FIG. 34 (TMPRSS6 mRNA [2]): 79%

TMPRSS-hcr-26: siRNA against TMPRSS6, SEQ ID NO 213/214 (chain 1 GUACCCUAGGAAAUACCAG; chain 2 CUGGUAUUUCCUAGGGUAC; chain 1: sugars from the 5' end mfmfmfmfmfmfmfmfmfm, backbone not given here; chain 2: sugars from the 5' end fmfmfmfmfmfmfmfmfmf, backbone not given here)
IC50 (TMPRSS6 mRNA [1]): 3.5 nM | Max inhibition (TMPRSS6 mRNA [1]): 100% | kd at 20 nM as shown in FIG. 34 (TMPRSS6 mRNA [2]): 98%

TMPRSS-hc-22: siRNA against TMPRSS6, SEQ ID NO 205/206 (chain 1 mAfGmAfUmCfCmUfGmGfGmAfGmAfAmGfUmGfGmC; chain 2 fGmCfCmAfCmUfUmCfUmCfCmCfAmGfGmAfUmCfU)
IC50 (TMPRSS6 mRNA [1]): 8.1 nM | Max inhibition (TMPRSS6 mRNA [1]): 99% | kd at 20 nM as shown in FIG. 34 (TMPRSS6 mRNA [2]): 73%

TMPRSS6-hcmr-24: siRNA against TMPRSS6, SEQ ID NO 209/210 (chain 1 mCfUmCfAmCfCmUfUmGfAmAfGmGfAmCfAmCfCmU; chain 2 fAmGfGmUfGmUfCmCfUmUfCmAfAmGfGmUfGmAfG)
IC50 (TMPRSS6 mRNA [1]): 0.8 nM | Max inhibition (TMPRSS6 mRNA [1]): 73% | kd at 20 nM as shown in FIG. 34 (TMPRSS6 mRNA [2]): 70%

TMPRSS-SR-21: siRNA against TMPRSS6, SEQ ID NO 167/168 (chain 1 mAfGmCfUmGfGmGfGmAfAmGfUmAfCmGfGmGfGmU; chain 2 fAmCfCmCfCmGfUmAfCmUfUmCfCmCfCmAfGmCfU)
IC50 (TMPRSS6 mRNA [1]): 5.8 nM | Max inhibition (TMPRSS6 mRNA [1]): 100% | kd at 20 nM as shown in FIG. 34 (TMPRSS6 mRNA [2]): 92%

Luciferase nucleic acid: non targeting control nucleic acid for Luciferase, SEQ ID NO 31/32 (chain 1 UCGAAGUAUUCCGCGUACG; chain 2 CGUACGCGGAAUACUUCGA; listed as RNA, chemistry not given here) [reference compound]
TMPRSS6 mRNA expression (TMPRSS6 mRNA [3]): did not affect TMPRSS6 mRNA levels

TMPRSS-SR-16: siRNA against TMPRSS6, strands hcTMP-SR16-A/B, SEQ ID NO 158 (as printed)/160 (chain 1 CUCAGCACCCCGUACUUCC; chain 2 UCAGCACCCCGUACUUCCC; listed as RNA, chemistry not fully specified)
IC50 (TMPRSS6 mRNA [1]): 8.4 nM | Max inhibition (TMPRSS6 mRNA [1]): 100% | kd at 20 nM as shown in FIG. 34 (TMPRSS6 mRNA [2]): 88%

TMPRSS-hc-23: siRNA against TMPRSS6, SEQ ID NO 207/208 (chain 1 CUGUUCUGGAUCGUCCACU; chain 2 AGUGGACGAUCCAGAACAG; chain 1: sugars from the 5' end mfmfmfmfmfmfmfmfmfm, backbone not given here; chain 2: sugars from the 5' end fmfmfmfmfmfmfmfmfmf, backbone not given here)
IC50 (TMPRSS6 mRNA [1]): 4.6 nM | Max inhibition (TMPRSS6 mRNA [1]): 83% | kd at 20 nM as shown in FIG. 34 (TMPRSS6 mRNA [2]): 70%

TMPRSS-SR-27: siRNA against TMPRSS6, SEQ ID NO 177/178 (chain 1 mAfGmUfAmGfUmAfGmCfUmGfGmGfGmAfAmGfUmA; chain 2 fUmAfCmUfUmCfCmCfCmAfGmCfUmAfCmUfAmCfU)
IC50 (TMPRSS6 mRNA [1]): 2.8 nM | Max inhibition (TMPRSS6 mRNA [1]): 94% | kd at 20 nM as shown in FIG. 34 (TMPRSS6 mRNA [2]): 84%

CC(=O)N[C@H]1C(O)O[C@H](CO)[C@H](O)[C@@H]1O (stereo partly drawn) [N-Acetyl-D-Galactosylamine (GalNAc), 2-(Acetylamino)-2-deoxy-D-galactopyranose]
Affinity of ASGP-R for GalNAc relative to D-Gal [4]: 50 fold

TMPRSS6-hcm9: siRNA, SEQ ID NO 17/18, alternating 2′OMe/2′F; TMP01 = strands TMPJH01A/TMPJH01B, same chemistry (chain 1 AACCAGAAGAAGCAGGUGA; chain 2 UCACCUGCUUCUUCUGGUU; chain 1: sugars from the 5' end mfmfmfmfmfmfmfmfmfm, backbone not given here; chain 2: sugars from the 5' end fmfmfmfmfmfmfmfmfmf, backbone not given here; further chemistry not fully specified)
TMPRSS6 mRNA expression (TMPRSS6 mRNA [3]): highest reduction of TMPRSS6 mRNA expression
